According to patent publication US20240270720A1, “INDAZOLE YL BENZIMIDAZOLE DERIVATIVE OR PHARMACEUTICALLY ACCEPTABLE SALT THEREOF, AND USE THEREOF” (INDUSTRY-UNIVERSITY COOPERATION FOUNDATION HANYANG …, priority 2021, published 2024):
Numbering of substitutions follows the chain as printed. Read-outs that look alike come from different tables or passages of the source.

Key:
[1] = molecular target: T1, TRKC (Homo sapiens, UniProt Q16288); experiment: Protein kinase profiling (Kinase HotSpot); type: biochemical
T1 construct: purchased Reaction Biology Corp. (Kinase HotSpot service)
Description: (§1) Reaction Biology Corp. Kinase HotSpot SM service (www.reactionbiology.com) was used to determine IC50 values for all compounds and kinase profiles. The analysis protocol was as follows: In a final reaction volume of 25 μL, a peptide substrate, [[sequence]], 5 μM, ATP 10 μM, and FLT3(h) (5 to 10 mU) were incubated with 25 mM Tris pH 7.5, 0.02 mM EGTA, 0.66 mg/mL myelin basic protein, 10 mM Mg acetate and [γ-33P-ATP] (a concentration of approximately 500 cpm/pmol was required for specific activity). The reaction was initiated by adding the Mg-ATP mixture. After incubation at room temperature for 40 minutes, the reaction was stopped by adding 5 μL of a 3% phosphoric acid solution. Thereafter, 10 μL of the reactant was spotted on a P30 filter mat and washed three times for 5 minutes in 75 mM phosphoric acid and once in methanol before drying and scintillation counting.

[2] = molecular target: T2, IGF1R (Homo sapiens, UniProt P08069); experiment: Protein kinase profiling (Kinase HotSpot); type: biochemical; settings: single dose 1 μM
T2 construct: purchased Reaction Biology Corp. (Kinase HotSpot service)
Description: as §1

[3] = molecular target: Aurora A (Homo sapiens, UniProt O14965); experiment: Protein kinase profiling (Kinase HotSpot)
Description: as §1

[4] = molecular target: ROS/ROS1 (Homo sapiens, UniProt P08922); experiment: Protein kinase profiling (Kinase HotSpot)
Description: (§2) The analysis protocol was as follows: In a final reaction volume of 25 μL, a peptide substrate, [[sequence]], 5 μM, ATP 10 μM, and FLT3(h) (5 to 10 mU) were incubated with 25 mM Tris pH 7.5, 0.02 mM EGTA, 0.66 mg/mL myelin basic protein, 10 mM Mg acetate and [γ-33P-ATP] (a concentration of approximately 500 cpm/pmol was required for specific activity). The reaction was initiated by adding the Mg-ATP mixture. After incubation at room temperature for 40 minutes, the reaction was stopped by adding 5 μL of a 3% phosphoric acid solution. Thereafter, 10 μL of the reactant was spotted on a P30 filter mat and washed three times for 5 minutes in 75 mM phosphoric acid and once in methanol before drying and scintillation counting.

[5] = molecular target: T3, FLT3 (R595_E596 ins EY) (Homo sapiens, UniProt P36888, INS595EY); experiment: Kinase HotSpot radiometric kinase assay (Reaction Biology); type: biochemical
T3 construct: purchased Reaction Biology Corp. (Kinase HotSpot service)
Description: as §1

[6] = molecular target: c-Kit (Homo sapiens, UniProt P10721); experiment: Protein kinase profiling (Kinase HotSpot)
Description: as §1

[7] = molecular target: FGFR3 (Homo sapiens, UniProt P22607); experiment: Protein kinase profiling (Kinase HotSpot)
Description: as §1

[8] = molecular target: T4, LCK (Homo sapiens, UniProt P06239); experiment: Protein kinase profiling (Kinase HotSpot); type: biochemical; settings: single dose 1 μM
T4 construct: purchased Reaction Biology Corp. (Kinase HotSpot service)
Description: as §2

[9] = system: most other kinases; experiment: Protein kinase profiling, 42 different kinases (summary); type: biochemical; settings: 1 μM; kinases of the 42-kinase panel other than FLT3
[10] = molecular target: T5, c-MER (Homo sapiens, UniProt Q12866); experiment: Protein kinase profiling (Kinase HotSpot); type: biochemical; settings: single dose 1 μM
T5 construct: purchased Reaction Biology Corp. (Kinase HotSpot service)
Description: as §2

[11] = molecular target: LYN (Homo sapiens, UniProt P07948); experiment: Protein kinase profiling (Kinase HotSpot)
Description: as §2

[12] = molecular target: T6, BTK (Homo sapiens, UniProt Q06187); experiment: Protein kinase profiling (Kinase HotSpot); type: biochemical; settings: single dose 1 μM
T6 construct: purchased Reaction Biology Corp. (Kinase HotSpot service)
Description: as §1

[13] = molecular target: T7, c-MET (Homo sapiens, UniProt P08581); experiment: Protein kinase profiling (Kinase HotSpot); type: biochemical; settings: single dose 1 μM
T7 construct: purchased Reaction Biology Corp. (Kinase HotSpot service)
Description: as §2

[14] = molecular target: T8, AXL (Homo sapiens, UniProt P30530); experiment: Protein kinase profiling (Kinase HotSpot); type: biochemical; settings: single dose 1 μM
T8 construct: purchased Reaction Biology Corp. (Kinase HotSpot service)
Description: as §1

[15] = molecular target: T9, ALK (Homo sapiens, UniProt Q9UM73); experiment: Protein kinase profiling (Kinase HotSpot); type: biochemical; settings: single dose 1 μM
T9 construct: purchased Reaction Biology Corp. (Kinase HotSpot service)
Description: as §1

[16] = molecular target: T10, CAMKK1 (Homo sapiens, UniProt Q8N5S9); experiment: Protein kinase profiling (Kinase HotSpot); type: biochemical
T10 construct: purchased Reaction Biology Corp. (Kinase HotSpot service)
Description: as §1

[17] = molecular target: PKA (Homo sapiens, UniProt P17612); experiment: Protein kinase profiling (Kinase HotSpot)
Description: as §2

[18] = molecular target: JAK3 (Homo sapiens, UniProt P52333); experiment: Protein kinase profiling (Kinase HotSpot)
Description: as §2

[19] = molecular target: T11, ABL1 (Homo sapiens, UniProt P00519); experiment: Protein kinase profiling (Kinase HotSpot); type: biochemical
T11 construct: purchased Reaction Biology Corp. (Kinase HotSpot service)
Description: as §1

[20] = molecular target: T12, SYK (Homo sapiens, UniProt P43405); experiment: Protein kinase profiling (Kinase HotSpot); type: biochemical; settings: single dose 1 μM
T12 construct: purchased Reaction Biology Corp. (Kinase HotSpot service)
Description: as §2

[21] = molecular target: T13, KDR/VEGFR2 (Homo sapiens, UniProt P35968); experiment: Protein kinase profiling (Kinase HotSpot); type: biochemical; settings: single dose 1 μM
T13 construct: purchased Reaction Biology Corp. (Kinase HotSpot service)
Description: as §2

[22] = molecular target: T14, c-Src (Homo sapiens, UniProt P12931); experiment: Protein kinase profiling (Kinase HotSpot); type: biochemical; settings: single dose 1 μM
T14 construct: purchased Reaction Biology Corp. (Kinase HotSpot service)
Description: as §2

[23] = molecular target: T15, EGFR (Homo sapiens, UniProt P00533); experiment: Protein kinase profiling (Kinase HotSpot); type: biochemical; settings: single dose 1 μM
T15 construct: purchased Reaction Biology Corp. (Kinase HotSpot service)
Description: as §2

[24] = molecular target: T16, ERK1 (Homo sapiens, UniProt P27361); experiment: Protein kinase profiling (Kinase HotSpot); type: biochemical
T16 construct: purchased Reaction Biology Corp. (Kinase HotSpot service)
Description: as §2

[25] = molecular target: T17, FMS (Homo sapiens, UniProt P07333); experiment: Protein kinase profiling (Kinase HotSpot); type: biochemical; settings: single dose 1 μM
T17 construct: purchased Reaction Biology Corp. (Kinase HotSpot service)
Description: as §1

[26] = molecular target: T18, FLT3 (Y591_V592 ins VDFREYEYD) (Homo sapiens, UniProt P36888, INS591VDFREYEYD); experiment: Kinase HotSpot radiometric kinase assay (Reaction Biology); type: biochemical
T18 construct: purchased Reaction Biology Corp. (Kinase HotSpot service)
Description: as §1

[27] = molecular target: T19, PLK1 (Homo sapiens, UniProt P53350); experiment: Protein kinase profiling (Kinase HotSpot); type: biochemical; settings: single dose 1 μM
T19 construct: purchased Reaction Biology Corp. (Kinase HotSpot service)
Description: as §2

[28] = molecular target: T20, BRAF (V599E) (Homo sapiens, UniProt P15056, V600E); experiment: Protein kinase profiling (Kinase HotSpot); type: biochemical
T20 construct: purchased Reaction Biology Corp. (Kinase HotSpot service)
Description: as §1

[29] = molecular target: T21, MEK1 (Homo sapiens, UniProt Q02750); experiment: Protein kinase profiling (Kinase HotSpot); type: biochemical; settings: single dose 1 μM
T21 construct: purchased Reaction Biology Corp. (Kinase HotSpot service)
Description: as §2

[30] = molecular target: T22, AKT1 (Homo sapiens, UniProt P31749); experiment: Protein kinase profiling (Kinase HotSpot); type: biochemical; settings: single dose 1 μM
T22 construct: purchased Reaction Biology Corp. (Kinase HotSpot service)
Description: as §1

[31] = molecular target: T23, RON/MST1R (Homo sapiens, UniProt Q04912); experiment: Protein kinase profiling (Kinase HotSpot); type: biochemical; settings: single dose 1 μM
T23 construct: purchased Reaction Biology Corp. (Kinase HotSpot service)
Description: as §2

[32] = molecular target: FLT3 (ITD)-NPOS (Homo sapiens, UniProt P36888); experiment: Kinase HotSpot radiometric kinase assay (Reaction Biology); type: biochemical; settings: single dose 1 μM
Description: Reaction Biology Corp. Kinase HotSpot SM service (www.reactionbiology.com) was used to determine IC50 values for all compounds and kinase profiles. […] The reaction was initiated by adding the Mg-ATP mixture. After incubation at room temperature for 40 minutes, the reaction was stopped by adding 5 μL of a 3% phosphoric acid solution. Thereafter, 10 μL of the reactant was spotted on a P30 filter mat and washed three times for 5 minutes in 75 mM phosphoric acid and once in methanol before drying and scintillation counting.

[33] = molecular target: GSK3b (Homo sapiens, UniProt P49841); experiment: Protein kinase profiling (Kinase HotSpot)
Description: as §1

[34] = molecular target: T24, TYRO3/SKY (Homo sapiens, UniProt Q06418); experiment: Protein kinase profiling (Kinase HotSpot); type: biochemical; settings: single dose 1 μM
T24 construct: purchased Reaction Biology Corp. (Kinase HotSpot service)

[35] = molecular target: FYN (Homo sapiens, UniProt P06241); experiment: Protein kinase profiling (Kinase HotSpot)
Description: as §1

[36] = molecular target: FLT3-ITD (Homo sapiens, UniProt P36888); experiment: Protein kinase profiling (Kinase HotSpot); type: biochemical; settings: single dose 1 μM
[37] = molecular target: T25, AXL (R499C) (Homo sapiens, UniProt P30530, R499C); experiment: Protein kinase profiling (Kinase HotSpot); type: biochemical; settings: single dose 1 μM
T25 construct: purchased Reaction Biology Corp. (Kinase HotSpot service)
Description: as §1

[38] = molecular target: T26, FLT3 (D835Y) (Homo sapiens, UniProt P36888, D835Y); experiment: Kinase HotSpot radiometric kinase assay (Reaction Biology)
T26 sequence (P36888 27-993 D835Y): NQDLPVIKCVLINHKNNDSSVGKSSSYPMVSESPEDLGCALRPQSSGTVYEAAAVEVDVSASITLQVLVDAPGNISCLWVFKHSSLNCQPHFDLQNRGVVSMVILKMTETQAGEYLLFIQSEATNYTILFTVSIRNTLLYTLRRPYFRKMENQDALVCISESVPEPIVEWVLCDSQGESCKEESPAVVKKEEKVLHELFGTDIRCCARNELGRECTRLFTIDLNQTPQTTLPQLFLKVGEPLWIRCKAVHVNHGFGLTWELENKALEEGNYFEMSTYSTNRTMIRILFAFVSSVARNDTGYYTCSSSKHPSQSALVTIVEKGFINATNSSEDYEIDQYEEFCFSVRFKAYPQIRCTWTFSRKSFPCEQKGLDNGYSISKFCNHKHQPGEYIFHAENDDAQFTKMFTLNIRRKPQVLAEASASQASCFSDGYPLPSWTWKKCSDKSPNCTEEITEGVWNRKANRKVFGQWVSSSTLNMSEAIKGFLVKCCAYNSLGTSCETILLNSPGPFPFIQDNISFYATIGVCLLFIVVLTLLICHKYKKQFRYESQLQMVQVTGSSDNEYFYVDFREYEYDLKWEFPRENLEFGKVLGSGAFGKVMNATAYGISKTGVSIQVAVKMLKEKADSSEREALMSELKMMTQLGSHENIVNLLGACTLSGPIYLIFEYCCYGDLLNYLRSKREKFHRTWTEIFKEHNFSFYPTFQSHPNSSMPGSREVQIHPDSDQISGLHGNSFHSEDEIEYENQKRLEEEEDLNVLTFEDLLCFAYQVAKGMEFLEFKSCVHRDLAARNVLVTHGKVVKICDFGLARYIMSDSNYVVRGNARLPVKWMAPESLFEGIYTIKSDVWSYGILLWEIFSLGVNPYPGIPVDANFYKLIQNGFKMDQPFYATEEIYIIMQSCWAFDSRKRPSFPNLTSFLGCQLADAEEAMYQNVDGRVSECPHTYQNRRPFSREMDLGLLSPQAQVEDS
Description: as §1

[39] = molecular target: T27, FLT3 wild type (Homo sapiens, UniProt P36888); experiment: as above; type: biochemical; settings: Table 1; read-out: FLT3 IC50
T27 construct: purchased Reaction Biology Corp. (Kinase HotSpot service)
T27 sequence (P36888 27-993): T26 sequence (P36888 27-993 D835Y) with Y809D
Description: as §1

[40] = read-out: FLT3 (D835Y) IC50, Table 1

Sequence of c-Kit (P10721 26-976): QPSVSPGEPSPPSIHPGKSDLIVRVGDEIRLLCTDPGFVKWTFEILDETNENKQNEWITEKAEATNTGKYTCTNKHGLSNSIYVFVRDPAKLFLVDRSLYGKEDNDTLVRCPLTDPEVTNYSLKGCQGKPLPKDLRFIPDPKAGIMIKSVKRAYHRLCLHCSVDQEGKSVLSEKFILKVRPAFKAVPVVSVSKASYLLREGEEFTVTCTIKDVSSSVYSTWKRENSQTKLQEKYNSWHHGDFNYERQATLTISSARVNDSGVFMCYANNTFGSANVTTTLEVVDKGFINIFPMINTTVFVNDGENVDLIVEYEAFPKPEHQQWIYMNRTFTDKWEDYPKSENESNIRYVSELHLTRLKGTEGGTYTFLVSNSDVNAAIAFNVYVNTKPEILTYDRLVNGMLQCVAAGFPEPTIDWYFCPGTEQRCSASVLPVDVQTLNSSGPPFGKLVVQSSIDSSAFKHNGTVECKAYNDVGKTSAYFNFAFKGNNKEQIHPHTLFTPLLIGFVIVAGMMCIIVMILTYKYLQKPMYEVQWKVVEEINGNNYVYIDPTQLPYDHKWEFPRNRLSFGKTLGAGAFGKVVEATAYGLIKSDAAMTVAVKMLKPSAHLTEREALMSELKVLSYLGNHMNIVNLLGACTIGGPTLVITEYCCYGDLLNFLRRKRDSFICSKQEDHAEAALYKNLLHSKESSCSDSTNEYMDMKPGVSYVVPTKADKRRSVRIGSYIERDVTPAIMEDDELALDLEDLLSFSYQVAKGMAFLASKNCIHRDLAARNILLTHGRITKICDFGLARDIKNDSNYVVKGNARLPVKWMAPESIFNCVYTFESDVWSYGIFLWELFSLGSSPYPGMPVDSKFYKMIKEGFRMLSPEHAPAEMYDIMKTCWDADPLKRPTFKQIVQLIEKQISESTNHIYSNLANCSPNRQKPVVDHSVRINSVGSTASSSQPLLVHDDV
T10 sequence (Q8N5S9 whole entry): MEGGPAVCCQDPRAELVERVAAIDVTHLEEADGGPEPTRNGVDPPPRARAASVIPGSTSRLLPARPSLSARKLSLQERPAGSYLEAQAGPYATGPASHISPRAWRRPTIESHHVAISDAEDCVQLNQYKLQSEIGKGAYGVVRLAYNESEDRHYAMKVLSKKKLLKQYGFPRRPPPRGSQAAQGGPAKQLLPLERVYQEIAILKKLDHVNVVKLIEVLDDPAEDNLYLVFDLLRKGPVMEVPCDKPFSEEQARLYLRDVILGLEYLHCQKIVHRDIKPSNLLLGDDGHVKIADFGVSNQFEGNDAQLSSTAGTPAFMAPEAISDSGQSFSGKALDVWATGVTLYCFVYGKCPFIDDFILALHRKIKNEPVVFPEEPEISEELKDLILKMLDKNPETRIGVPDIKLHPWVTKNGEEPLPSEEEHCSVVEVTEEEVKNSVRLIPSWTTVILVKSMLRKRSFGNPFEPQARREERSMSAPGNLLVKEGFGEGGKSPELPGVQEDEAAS
T1 sequence (Q16288 32-839): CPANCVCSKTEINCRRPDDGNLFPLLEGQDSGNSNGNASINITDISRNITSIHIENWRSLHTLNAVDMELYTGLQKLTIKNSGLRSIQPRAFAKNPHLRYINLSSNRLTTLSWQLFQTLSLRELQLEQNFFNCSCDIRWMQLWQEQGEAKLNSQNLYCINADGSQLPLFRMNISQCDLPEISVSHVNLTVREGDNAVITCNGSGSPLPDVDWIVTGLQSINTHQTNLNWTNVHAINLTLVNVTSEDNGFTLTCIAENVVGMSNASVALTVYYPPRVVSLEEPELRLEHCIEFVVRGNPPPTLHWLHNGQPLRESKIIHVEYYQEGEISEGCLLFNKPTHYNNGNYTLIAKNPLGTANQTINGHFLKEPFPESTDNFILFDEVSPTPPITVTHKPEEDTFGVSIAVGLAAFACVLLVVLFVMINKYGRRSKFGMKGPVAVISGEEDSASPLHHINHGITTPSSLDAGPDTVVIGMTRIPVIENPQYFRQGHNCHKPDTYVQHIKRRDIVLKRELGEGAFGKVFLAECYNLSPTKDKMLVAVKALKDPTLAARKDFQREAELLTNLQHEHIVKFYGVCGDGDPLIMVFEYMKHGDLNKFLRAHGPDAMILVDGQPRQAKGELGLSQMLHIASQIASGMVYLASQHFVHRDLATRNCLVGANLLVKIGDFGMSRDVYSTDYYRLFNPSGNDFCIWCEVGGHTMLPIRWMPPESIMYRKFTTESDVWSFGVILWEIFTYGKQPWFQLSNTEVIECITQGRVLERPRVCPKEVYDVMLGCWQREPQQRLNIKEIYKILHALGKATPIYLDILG
T11 sequence (P00519 whole entry): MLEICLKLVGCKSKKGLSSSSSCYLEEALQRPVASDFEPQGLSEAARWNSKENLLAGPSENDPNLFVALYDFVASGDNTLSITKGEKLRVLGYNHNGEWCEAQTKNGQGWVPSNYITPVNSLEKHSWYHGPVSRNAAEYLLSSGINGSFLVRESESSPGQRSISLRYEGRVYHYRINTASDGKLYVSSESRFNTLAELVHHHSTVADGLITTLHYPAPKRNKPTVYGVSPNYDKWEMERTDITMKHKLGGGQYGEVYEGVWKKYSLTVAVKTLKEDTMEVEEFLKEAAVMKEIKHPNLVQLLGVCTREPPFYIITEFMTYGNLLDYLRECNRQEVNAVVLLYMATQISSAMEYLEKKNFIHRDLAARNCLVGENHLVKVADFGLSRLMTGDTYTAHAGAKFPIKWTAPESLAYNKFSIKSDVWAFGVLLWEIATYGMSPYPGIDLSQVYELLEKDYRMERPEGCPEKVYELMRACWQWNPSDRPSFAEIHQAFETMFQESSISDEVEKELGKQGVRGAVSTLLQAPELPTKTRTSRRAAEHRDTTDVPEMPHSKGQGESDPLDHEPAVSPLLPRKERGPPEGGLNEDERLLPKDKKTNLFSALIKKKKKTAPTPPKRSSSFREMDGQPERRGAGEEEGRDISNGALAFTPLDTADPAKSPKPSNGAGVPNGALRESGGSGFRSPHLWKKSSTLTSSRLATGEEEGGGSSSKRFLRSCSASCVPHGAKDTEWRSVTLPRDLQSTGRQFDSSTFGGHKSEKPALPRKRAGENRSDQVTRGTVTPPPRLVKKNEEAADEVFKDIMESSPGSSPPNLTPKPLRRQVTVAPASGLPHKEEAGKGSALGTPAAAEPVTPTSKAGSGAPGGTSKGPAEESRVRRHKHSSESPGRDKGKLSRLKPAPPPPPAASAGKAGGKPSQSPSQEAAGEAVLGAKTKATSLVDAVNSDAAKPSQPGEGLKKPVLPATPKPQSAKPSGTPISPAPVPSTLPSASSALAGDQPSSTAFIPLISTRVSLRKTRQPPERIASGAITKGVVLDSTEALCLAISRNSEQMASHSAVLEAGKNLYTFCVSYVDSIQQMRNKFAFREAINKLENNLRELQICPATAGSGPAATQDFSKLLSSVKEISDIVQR
T14 sequence (P12931 whole entry): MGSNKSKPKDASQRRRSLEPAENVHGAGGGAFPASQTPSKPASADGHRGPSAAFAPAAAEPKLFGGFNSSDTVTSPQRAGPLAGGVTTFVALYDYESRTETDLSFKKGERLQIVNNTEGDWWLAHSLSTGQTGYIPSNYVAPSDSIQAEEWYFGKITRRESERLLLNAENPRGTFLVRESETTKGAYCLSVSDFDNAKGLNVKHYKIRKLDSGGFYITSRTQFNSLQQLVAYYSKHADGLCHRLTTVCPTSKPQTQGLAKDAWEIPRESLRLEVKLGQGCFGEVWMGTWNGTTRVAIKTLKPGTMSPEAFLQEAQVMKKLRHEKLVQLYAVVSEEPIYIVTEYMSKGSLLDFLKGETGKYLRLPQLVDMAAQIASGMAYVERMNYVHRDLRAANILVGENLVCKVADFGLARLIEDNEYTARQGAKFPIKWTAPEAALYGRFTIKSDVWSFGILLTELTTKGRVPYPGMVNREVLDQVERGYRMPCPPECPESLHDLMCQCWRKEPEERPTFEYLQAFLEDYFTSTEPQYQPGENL
T25 sequence (P30530 26-894 R499C): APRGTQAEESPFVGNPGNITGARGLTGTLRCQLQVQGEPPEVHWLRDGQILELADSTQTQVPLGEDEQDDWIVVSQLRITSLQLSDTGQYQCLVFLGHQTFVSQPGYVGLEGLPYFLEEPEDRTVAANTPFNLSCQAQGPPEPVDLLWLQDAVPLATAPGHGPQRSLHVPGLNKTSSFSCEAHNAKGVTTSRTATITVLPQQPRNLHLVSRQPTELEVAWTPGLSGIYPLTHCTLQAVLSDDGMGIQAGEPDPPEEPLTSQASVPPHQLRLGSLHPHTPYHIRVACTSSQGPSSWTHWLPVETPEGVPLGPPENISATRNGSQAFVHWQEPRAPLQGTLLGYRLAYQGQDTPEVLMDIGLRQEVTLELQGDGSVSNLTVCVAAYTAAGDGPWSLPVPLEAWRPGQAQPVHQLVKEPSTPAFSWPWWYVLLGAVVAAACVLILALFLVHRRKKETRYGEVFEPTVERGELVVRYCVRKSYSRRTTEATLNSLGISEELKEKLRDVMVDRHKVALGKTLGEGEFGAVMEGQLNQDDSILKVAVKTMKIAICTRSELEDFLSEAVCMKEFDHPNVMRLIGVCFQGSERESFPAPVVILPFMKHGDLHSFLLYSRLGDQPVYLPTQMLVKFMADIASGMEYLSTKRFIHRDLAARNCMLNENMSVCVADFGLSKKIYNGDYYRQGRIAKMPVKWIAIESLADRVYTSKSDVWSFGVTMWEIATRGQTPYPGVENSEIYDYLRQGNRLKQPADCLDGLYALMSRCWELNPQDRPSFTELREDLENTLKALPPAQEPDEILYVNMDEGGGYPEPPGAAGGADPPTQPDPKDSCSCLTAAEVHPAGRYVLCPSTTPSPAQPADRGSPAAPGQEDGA
T8 sequence (P30530 26-894): as the sequence (P30530 26-894 R499C) above, with C474R counted along it

CCN1CCN(Cc2cc(C(=O)Nc3ccc4[nH]c(-c5ccc6cn[nH]c6c5)nc4c3)cc(C(F)(F)F)c2)CC1 [Compound 8r, N-(2-(1H-indazol-6-yl)-1H-benzo[di]imidazol-5-yl)-3-((4-ethylpiperazin-1-yl)methyl)-5-(trifluoromethyl)benzamide]
inhibition at 1 µM ([1]; TRKC, single dose 1 μM): 48.3%
IC50 ([1]; Table 4): 1520 nM
inhibition at 1 µM [2]: 6.14%
melting point: 265 to 267 °C
inhibition at 1 µM [3]: 7.47%
inhibition at 1 µM [4]: 7.4%
IC50 [5]: 24.8 nM
inhibition at 1 µM ([5]; FLT3 (R595_E596insEY), single dose 1 μM): 93.9%
inhibition at 1 µM [6]: 19%
IC50 ([6]; read-out: IC50 c-Kit, Table 4): 4570 nM
inhibition at 1 µM [7]: 0%
inhibition at 1 µM [8]: 0%
inhibitory activity for most other kinases [9]: less than 20%
inhibition at 1 µM [10]: 7.3%
inhibition at 1 µM [11]: 7.4%
inhibition at 1 µM [12]: 17.5%
inhibition at 1 µM [13]: 6.53%
inhibition at 1 µM [14]: 1.88%
inhibition at 1 µM [15]: 7.5%
inhibition at 1 µM ([16]; CAMKK1, single dose 1 μM): 32.5%
IC50 ([16]; Table 4): 395 nM
inhibition at 1 µM [17]: 7.34%
inhibition at 1 µM [18]: 6.42%
inhibition at 1 µM ([19]; ABL1, single dose 1 μM): 18.4%
IC50 ([19]; Table 4): 3090 nM
inhibition at 1 µM [20]: 6.01%
inhibition at 1 µM [21]: 7.12%
inhibition at 1 µM [22]: 1.94%
inhibition at 1 µM [23]: 0.274%
inhibition at 1 µM [24]: 0%
inhibition at 1 µM [25]: 0.531%
inhibition at 1 µM ([26]; FLT3 (Y591_V592ins[…]), single dose 1 μM): 90.9%
IC50 ([26]; read-out: IC50 FLT3 (Y591_V592 ins VDFREYEYD)): 49.5 nM
inhibition at 1 µM [27]: 5.39%
inhibition at 1 µM [28]: 1%
inhibition at 1 µM [29]: 5.69%
inhibition at 1 µM [30]: 3.09%
inhibition at 1 µM [31]: 6.99%
% Inhibition [32]: 88.0%
inhibition at 1 µM [33]: 7.25%
inhibition at 1 µM [34]: 9.76%
inhibition at 1 µM [35]: 18%
% Inhibition [36]: 88.0%
inhibition at 1 µM [37]: 6.64%

O=C(Nc1ccc2[nH]c(-c3ccc4cn[nH]c4c3)nc2c1)c1cc(N2CCN(C3CC3)CC2)cc(C(F)(F)F)c1 [Compound 8p, N-(2-(1H-indazol-6-yl)-1H-benzo[di]imidazol-5-yl)-3-(4-cyclopropylpiperazin-1-yl)-5-(trifluoromethyl)benzamide]
IC50 [38, 40]: 131 nM
melting point: 154 to 156 °C
IC50 [39]: 409 nM

CCN1CCC(Nc2cc(C(=O)Nc3ccc4[nH]c(-c5ccc6cn[nH]c6c5)nc4c3)cc(C(F)(F)F)c2)CC1 [Compound 8t, N-(2-(1H-indazol-6-yl)-1H-benzo[di]imidazol-5-yl)-3-((1-ethylpiperidin-4-yl)amino)-5-(trifluoromethyl)benzamide]
IC50 [38, 40]: 87 nM
melting point: 166 to 168 °C
IC50 [39]: 286 nM

CC(C)(C)c1cc(C(=O)Nc2ccc3[nH]c(-c4ccc5cn[nH]c5c4)nc3c2)no1 [Compound 8h, N-(2-(1H-indazol-6-yl)-1H-benzo[di]imidazol-5-yl)-5-(tert-butyl)isoxazole-3-carboxamide]
IC50 [38]: 32 nM
melting point: 147 to 149 °C
IC50 [39]: ~700 nM

O=C(Nc1ccc(Cl)c(Cl)c1)Nc1ccc2[nH]c(-c3ccc4cn[nH]c4c3)nc2c1 [Compound 8m, 1-(2-(1H-indazol-6-yl)-1H-benzo[di]imidazol-5-yl)-3-(3,4-dichlorophenyl)urea]
IC50 [38]: ~1000 nM
melting point: 144 to 146 °C
IC50 [39]: 3080 nM
